Laboratory results taken from patent US20260165323A1, “USE OF STROBILURIN TYPE COMPOUNDS FOR COMBATING PHYTOPATHOGENIC FUNGI CONTAINING AN AMINO ACID SUBSTITUTION F129L IN THE MITOCHONDRIAL CYTOCHROME B PROTEIN CONFERRING RESISTANCE TO QO […]” (priority 2022, published 2026).

How the values were obtained:
Type in all cases: in vivo
[1] = test system: Phakopsora pachyrhizi containing the amino acid substitution F129L in the mitochondrial cytochrome b protein; assay: Use Example 1: protective control of soybean rust on soybeans (PHAKPA P2); settings: inoculated 2 days after spraying, % diseased leaf area
How it was run: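 Soybean seedling leaves sprayed to run-off with compound in acetone/DMSO–Wettol–water at the stated concentration, kept 2 days at 23-27° C, then inoculated with Qo-inhibitor-resistant F129L P. pachyrhizi. After 24 h at ~95% RH, 20-24° C, and up to 14 days in greenhouse, % diseased leaf area scored visually.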

[2] = test system: Phakopsora pachyrhizi containing the amino acid substitution F129L in the mitochondrial cytochrome b protein; assay: Use Example 2: protective control of soybean rust on soybeans (PHAKPA P6); settings: inoculated six days after spraying, % diseased leaf area
How it was run: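 Compound in acetone and/or DMSO with Wettol (99:1), diluted with water, was sprayed to run-off on potted soybean seedlings. After six days at 23–27°C and 60–80% RH, plants were inoculated with a Qo-resistant F129L strain and held 24 h at about 95% RH. Percent diseased leaf area was scored visually after up to 14 days.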

Puccinia recondita [3] = assay: Use Example 3: curative control of brown rust on wheat (PUCCRT K4); settings: % diseased leaf area
Description: The compound was dissolved in a mixture of acetone and/or dimethylsulfoxide and the wetting agent/emulsifier Wettol, which is based on ethoxylated alkylphenoles, in a ratio (volume) solvent-emulsifier of 99 to 1 to give a total volume of 5 ml. Subsequently, water was added to total volume of 100 ml. This stock solution was then diluted with the described solvent-emulsifier-water mixture to the final concentration given in the tables below.
Use Example 3. Curative Control of Brown Rust on Wheat Caused by Puccinia recondita (PUCCRT K4)
The first two developed leaves of potted wheat seedling were dusted with spores of Puccinia recondita. To ensure the success the artificial inoculation, the plants were transferred to a humid chamber without light and a relative humidity of 95 to 99% and 20 to 24° C. for 24 h. The next 3 days the plants were cultivated in a greenhouse chamber at 20 to 24° C. and a relative humidity between 65 and 70%. Then the plants were sprayed to run-off with previously described spray solution, containing the concentration of active ingredient or their mixture as described below. The plants were allowed to air-dry. Then the trial plants were cultivated for 5 to 7 days in a greenhouse chamber at 20 to 24° C. and a relative humidity between 65 and 70%. The extent of fungal attack on the leaves was visually assessed as % diseased leaf area, the disease level of untreated controls was usually between 80 and 100%.

Puccinia recondita [4] = assay: Use Example 4: preventative control of brown rust on wheat (PUCCRT P7); settings: inoculated seven days after spraying, % diseased leaf area
How it was run: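 First two leaves of potted wheat seedlings sprayed to run-off with compound in acetone/DMSO–emulsifier–water, then inoculated with Puccinia recondita spores seven days later. Plants held 24 h dark at 95–99% RH and 20–24 °C, then 9–11 days in greenhouse; diseased leaf area (%) scored visually.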

Compound | % PHAKPA (F129L) Disease level P2 at 4 ppm [1] [%] | % PHAKPA (F129L) Disease level P2 at 16 ppm [1] [%] | % PHAKPA (F129L) Disease level P6 at 4 ppm [2] [%] | % PHAKPA (F129L) Disease level P6 at 16 ppm [2] [%] | % PUCCRT Disease level K4 at 4 ppm (Puccinia recondita [3]) [%] | % PUCCRT Disease level K4 at 16 ppm (Puccinia recondita [3]) [%] | % PUCCRT Disease level P7 at 4 ppm (Puccinia recondita [4]) [%] | % PUCCRT Disease level P7 at 16 ppm (Puccinia recondita [4]) [%]
COC/C(=N\OCc1c(Cl)cccc1/C(=N\OC)C(=O)OC)c1cccc(F)c1 [compound 25] | 82 | 23 | 90 | 58 | 83 | 78 | 35 | 5
CCOC/C(=N\OCc1c(Cl)cccc1/C(=C\OC)C(=O)OC)c1cccc(F)c1 [compound 27] | 5 | 0 | 17 | 1 | 57 | 12 | 40 | 7
COC/C(=N\OCc1c(Cl)cccc1/C(=N\OC)C(=O)OC)c1c(F)cc(F)cc1F [compound 28] | 67 | 13 | 85 | 27 | 75 | 77 | 57 | 4
CCOC/C(=N\OCc1c(Cl)cccc1/C(=C\OC)C(=O)OC)c1c(F)cc(F)cc1F [compound 30] | 7 | 0 | 25 | 5 | 77 | 35 | 80 | 37
CCOC/C(=N\OCc1c(Cl)cccc1/C(=N\OC)C(=O)NC)c1c(F)cc(F)cc1F [compound 32] | 12 | 0 | 33 | 1 | 77 | 57 | 53 | 30
CCOC/C(=N\OCc1c(Cl)cccc1/C(=N\OC)C(=O)OC)c1cccc(Cl)c1 [compound 33] | 93 | 67 | 75 | 72 | 73 | 73 | 65 | 35
CO/C=C(/C(=O)OC)c1cccc(Cl)c1CO/N=C(\COC)c1ccc(Cl)cc1 [compound 35] | 16 | 1 | 30 | 4 | 73 | 7 | 14 | 0
CCOC/C(=N\OCc1c(Cl)cccc1/C(=C\OC)C(=O)OC)c1cccc(Cl)c1 [compound 38] | 23 | 3 | 50 | 6 | 50 | 8 | 20 | 2
CO/C=C(/C(=O)OC)c1cccc(Cl)c1CO/N=C(\COC)c1cccc(Cl)c1 [compound 39] | 2 | 0 | 10 | 1 | 9 | 1 | 3 | 0
CCOC/C(=N\OCc1c(Cl)cccc1/C(=N\OC)C(=O)NC)c1cccc(Cl)c1 [compound 40] | 15 | 1 | 33 | 4 | 73 | 40 | 30 | 4
CNC(=O)/C(=N/OC)c1cccc(Cl)c1CO/N=C(\COC)c1cccc(F)c1 [compound 41] | 3 | 0 | 14 | 1 | 72 | 12 | 23 | 4
CCOC/C(=N\OCc1c(Cl)cccc1/C(=N\OC)C(=O)NC)c1cccc(F)c1 [compound 42] | 11 | 0 | 32 | 4 | 70 | 42 | 62 | 12
CNC(=O)/C(=N/OC)c1cccc(Cl)c1CO/N=C(\COC)c1cccc(Cl)c1 [compound 43] | 6 | 0 | 20 | 2 | 72 | 10 | 10 | 3
